Consider 7 molecules from PubChem BioAssay AID1745844 (Carcinogenic Potency Database (CPDB), 2022).

This series has as its system rodent lifetime carcinogenesis bioassay, tumor incidence TD50. In words: chronic cancer bioassays in animals – CPDB, compiled studies (AID 1745844).

The source made the active and inactive calls. No rule for the calls is given here.

As for `CC(=O)Nc1ccc(C(=O)CCl)cc1`, the TD50 (mouse, strain B6C3F1, females, in feed, site: any site (literature study), lesion: several types, types named in the paper, dosed 90 weeks, study length 105 weeks) is 3500 mg/kg/day; the TD50 (mouse, strain B6C3F1, females, in feed, site: liver, lesion: hepatocellular adenoma + hepatocellular carcinoma + neoplastic nodule, dosed 90 weeks, study length 105 weeks) came out at 4700 mg/kg/day; the TD50 (mouse, strain B6C3F1, females, in feed, site: liver, lesion: hepatocellular adenoma, dosed 90 weeks, study length 105 weeks) was 4700 mg/kg/day; the TD50 (mouse, strain B6C3F1, females, in feed, site: lung, lesion: alveolar/bronchiolar adenoma + alveolar/bronchiolar carcinoma, dosed 90 weeks, study length 105 weeks) turned out to be 3020 mg/kg/day; the TD50 (rat, strain Fischer 344, males, in feed, site: any site (literature study), lesion: several types, types named in the paper, dosed 87 weeks, study length 103 weeks) is 325 mg/kg/day (inactive); the TD50 (rat, strain Fischer 344, males, in feed, site: liver, lesion: hepatocellular adenoma + hepatocellular carcinoma + neoplastic nodule, dosed 87 weeks, study length 103 weeks) came out at 2470 mg/kg/day. Moreover, the carcinogen call reads like this: (mouse, strain B6C3F1, males, in feed, site: any site (literature study), lesion: several types, types named in the paper, dosed 90 weeks, study length 105 weeks) “negative (inactive)”; (rat, strain Fischer 344, females, in feed, site: any site (literature study), lesion: several types, types named in the paper, dosed 87 weeks, study length 103 weeks) “negative (inactive)”.

`FC(F)(Cl)Cl`: the TD50 (mouse, strain Swiss, females, inhaled, site: all sites, lesion: leukemia, dosed 78 weeks, study length 104 weeks) was 4100 mg/kg/day (inactive); the TD50 (mouse, strain Swiss, females, inhaled, site: any site (literature study), lesion: malignant tumor, dosed 78 weeks, study length 104 weeks) is 3320 mg/kg/day (inactive); the TD50 (mouse, strain Swiss, females, inhaled, site: any site (literature study), lesion: several types, types named in the paper, dosed 78 weeks, study length 104 weeks) is 59000 mg/kg/day (inactive); the TD50 (mouse, strain Swiss, females, inhaled, site: lung, lesion: adenoma, dosed 78 weeks, study length 104 weeks) was 91900 mg/kg/day (inactive); the TD50 (mouse, strain Swiss, males, inhaled, site: any site (literature study), lesion: malignant tumor, dosed 78 weeks, study length 104 weeks) was 33100 mg/kg/day (inactive); the TD50 (mouse, strain Swiss, males, inhaled, site: any site (literature study), lesion: several types, types named in the paper, dosed 78 weeks, study length 104 weeks) was 12100 mg/kg/day (inactive). Besides, the TD50 reads like this: (mouse, strain Swiss, males, inhaled, site: lung, lesion: adenoma, dosed 78 weeks, study length 104 weeks) 41900 mg/kg/day (inactive); (rat, strain Sprague-Dawley, females, inhaled, site: liver, lesion: angiosarcoma, dosed 104 weeks, study length 104 weeks) 31300 mg/kg/day (inactive); (rat, strain Sprague-Dawley, males, inhaled, site: adrenal gland, lesion: pheochromocytoma, dosed 104 weeks, study length 104 weeks) 1320 mg/kg/day (inactive); (rat, strain Sprague-Dawley, males, inhaled, site: any site (literature study), lesion: several types, types named in the paper, dosed 104 weeks, study length 104 weeks) 555 mg/kg/day (inactive). Further, the carcinogen call reads like this: (rat, strain Sprague-Dawley, females, inhaled, site: any site (literature study), lesion: malignant tumor, dosed 104 weeks, study length 104 weeks) “negative (inactive)”; (rat, strain Sprague-Dawley, females, inhaled, site: any site (literature study), lesion: several types, types named in the paper, dosed 104 weeks, study length 104 weeks) “negative (inactive)”; (rat, strain Sprague-Dawley, males, inhaled, site: any site (literature study), lesion: malignant tumor, dosed 104 weeks, study length 104 weeks) “negative (inactive)”; (rat, strain Sprague-Dawley, males, inhaled, site: liver, lesion: angiosarcoma, dosed 104 weeks, study length 104 weeks) “negative (inactive)”.

With `CS(=O)(=O)c1ccc([C@@H](O)[C@@H](CO)NC(=O)C(Cl)Cl)cc1`, the TD50 by setting is: (rat, strain F344/DuCrj, females, in drinking water, site: any site (literature study), lesion: one or several types, types not named, dosed 104 weeks, study length 108 weeks) 43.2 mg/kg/day (inactive); (rat, strain F344/DuCrj, males, in drinking water, site: liver, lesion: hepatocellular adenoma, dosed 104 weeks, study length 108 weeks) 683 mg/kg/day (inactive). For the same molecule, the carcinogen call (rat, strain F344/DuCrj, females, in drinking water, site: liver, lesion: one or several types, types not named, dosed 104 weeks, study length 108 weeks) was “negative (inactive)” and the carcinogen call (rat, strain F344/DuCrj, males, in drinking water, site: any site (literature study), lesion: one or several types, types not named, dosed 104 weeks, study length 108 weeks) is “negative (inactive)”.

For `Nc1ccccc1`, the TD50 (mouse, strain B6C3F1, females, in feed, site: any site (literature study), lesion: several types, types named in the paper, dosed 103 weeks, study length 107 weeks) was 9150 mg/kg/day (inactive); the TD50 (mouse, strain B6C3F1, females, in feed, site: liver, lesion: hepatocellular adenoma + hepatocellular carcinoma + neoplastic nodule, dosed 103 weeks, study length 107 weeks) turned out to be 8850 mg/kg/day; the TD50 (rat, strain Fischer 344, females, in feed, site: liver, lesion: hepatocellular adenoma + hepatocellular carcinoma + neoplastic nodule, dosed 103 weeks, study length 107 weeks) amounted to 13000 mg/kg/day; the TD50 (rat, strain Fischer 344, females, in feed, site: multiple organs + spleen, lesion: fibrosarcoma + sarcoma, NOS, dosed 103 weeks, study length 107 weeks) was 1740 mg/kg/day; the TD50 (rat, strain Fischer 344, males, in feed, site: adrenal gland, lesion: pheochromocytoma + pheochromocytoma, malignant, dosed 103 weeks, study length 107 weeks) stood at 556 mg/kg/day; the TD50 (rat, strain Fischer 344, males, in feed, site: any site (literature study), lesion: several types, types named in the paper, dosed 103 weeks, study length 107 weeks) turned out to be 124 mg/kg/day. The TD50 is 88 mg/kg/day (rat, strain Fischer 344, males, in feed, site: body cavities + multiple organs + spleen, lesion: mesothelioma, NOS + fibrosarcoma + hemangiosarcoma + sarcoma, NOS, dosed 103 weeks, study length 107 weeks); 263 mg/kg/day (rat, strain Fischer 344, males, in feed, site: body cavities + multiple organs + spleen, lesion: mesothelioma, NOS + fibrosarcoma + sarcoma, NOS, dosed 103 weeks, study length 107 weeks); 146 mg/kg/day (rat, strain Fischer 344, males, in feed, site: body cavities + multiple organs + spleen, lesion: mesothelioma, NOS + hemangiosarcoma, dosed 103 weeks, study length 107 weeks); 572 mg/kg/day (rat, strain Fischer 344, males, in feed, site: body cavities + multiple organs, lesion: mesothelioma, NOS + fibrosarcoma + sarcoma, NOS, dosed 103 weeks, study length 107 weeks); 451 mg/kg/day (rat, strain Fischer 344, males, in feed, site: spleen, lesion: fibrosarcoma + sarcoma, NOS, dosed 103 weeks, study length 107 weeks); 160 mg/kg/day (rat, strain Fischer 344, males, in feed, site: spleen, lesion: hemangiosarcoma, dosed 103 weeks, study length 107 weeks). Besides, under “mouse, strain B6C3F1, males, in feed, site: any site (literature study), lesion: several types, types named in the paper, dosed 103 weeks, study length 107 weeks”, the carcinogen call was “negative (inactive)”.

Turning to `CC(I)C1OCC(CO)O1` (stereo not drawn), the TD50 reads like this: (mouse, strain B6C3F1, females, by gavage, site: Harderian gland + pituitary gland, anterior, lesion: adenoma, NOS + carcinoma, NOS, dosed 103 weeks, study length 105 weeks) 92.4 mg/kg/day; (mouse, strain B6C3F1, females, by gavage, site: Harderian gland, lesion: adenoma, NOS + carcinoma, NOS, dosed 103 weeks, study length 105 weeks) 263 mg/kg/day; (mouse, strain B6C3F1, females, by gavage, site: any site (literature study), lesion: several types, types named in the paper, dosed 103 weeks, study length 105 weeks) 172 mg/kg/day; (mouse, strain B6C3F1, females, by gavage, site: forestomach, lesion: squamous-cell papilloma, dosed 103 weeks, study length 105 weeks) 608 mg/kg/day; (mouse, strain B6C3F1, females, by gavage, site: liver, lesion: hepatocellular adenoma + hepatocellular carcinoma + neoplastic nodule, dosed 103 weeks, study length 105 weeks) 373 mg/kg/day; (mouse, strain B6C3F1, females, by gavage, site: liver, lesion: hepatocellular adenoma + hepatocellular carcinoma, dosed 103 weeks, study length 105 weeks) 373 mg/kg/day. In addition, the TD50 runs as follows: (mouse, strain B6C3F1, females, by gavage, site: liver, lesion: hepatocellular adenoma, dosed 103 weeks, study length 105 weeks) 471 mg/kg/day; (mouse, strain B6C3F1, females, by gavage, site: lung, lesion: alveolar/bronchiolar adenoma + alveolar/bronchiolar carcinoma, dosed 103 weeks, study length 105 weeks) 2740 mg/kg/day; (mouse, strain B6C3F1, females, by gavage, site: pituitary gland, anterior, lesion: adenoma, NOS, dosed 103 weeks, study length 105 weeks) 138 mg/kg/day; (mouse, strain B6C3F1, males, by gavage, site: liver, lesion: hepatocellular adenoma + hepatocellular carcinoma + neoplastic nodule, dosed 103 weeks, study length 104 weeks) 1100 mg/kg/day; (mouse, strain B6C3F1, males, by gavage, site: lung, lesion: alveolar/bronchiolar adenoma + alveolar/bronchiolar carcinoma, dosed 103 weeks, study length 104 weeks) 2410 mg/kg/day; (rat, strain Fischer 344, females, by gavage, site: any site (literature study), lesion: several types, types named in the paper, dosed 103 weeks, study length 104 weeks) 214 mg/kg/day (inactive). Besides, the TD50 (rat, strain Fischer 344, females, by gavage, site: liver, lesion: hepatocellular adenoma + hepatocellular carcinoma + neoplastic nodule, dosed 103 weeks, study length 104 weeks) is 2490 mg/kg/day; the TD50 (rat, strain Fischer 344, males, by gavage, site: any site (literature study), lesion: several types, types named in the paper, dosed 103 weeks, study length 104 weeks) is 52.1 mg/kg/day; the TD50 (rat, strain Fischer 344, males, by gavage, site: liver, lesion: hepatocellular adenoma + hepatocellular carcinoma + neoplastic nodule, dosed 103 weeks, study length 104 weeks) is 571 mg/kg/day; the TD50 (rat, strain Fischer 344, males, by gavage, site: multiple organs + thyroid gland, lesion: mononuclear-cell leukemia + follicular-cell carcinoma, dosed 103 weeks, study length 104 weeks) is 84.1 mg/kg/day; the TD50 (rat, strain Fischer 344, males, by gavage, site: multiple organs, lesion: mononuclear-cell leukemia, dosed 103 weeks, study length 104 weeks) was 101 mg/kg/day; the TD50 (rat, strain Fischer 344, males, by gavage, site: nasal cavity, lesion: adenoma, NOS, dosed 103 weeks, study length 104 weeks) came out at 1210 mg/kg/day. Also, the TD50 (rat, strain Fischer 344, males, by gavage, site: testis, lesion: interstitial-cell tumor, dosed 103 weeks, study length 104 weeks) worked out at 40.6 mg/kg/day and the TD50 (rat, strain Fischer 344, males, by gavage, site: thyroid gland, lesion: follicular-cell carcinoma, dosed 103 weeks, study length 104 weeks) is 280 mg/kg/day. Further, the carcinogen call (mouse, strain B6C3F1, males, by gavage, site: any site (literature study), lesion: several types, types named in the paper, dosed 103 weeks, study length 104 weeks) is “negative (inactive)”.

`OCC(O)[C@@H](O)[C@H](O)[C@H](O)CO[C@H]1O[C@H](CO)[C@@H](O)[C@H](O)[C@H]1O` (stereo partly drawn): the TD50 reads like this: (mouse, strain Cpb:Swiss random, females, in feed, site: any site (literature study), lesion: one or several types, types not named, dosed 104 weeks, study length 104 weeks) 83400 mg/kg/day (inactive); (mouse, strain Cpb:Swiss random, females, in feed, site: lung, lesion: alveolar-cell tumor, dosed 104 weeks, study length 104 weeks) 92600 mg/kg/day (inactive); (mouse, strain Cpb:Swiss random, males, in feed, site: lung, lesion: alveolar-cell tumor, dosed 94 weeks, study length 94 weeks) 26200 mg/kg/day (inactive). The carcinogen call is, setting by setting: (mouse, strain Cpb:Swiss random, females, in feed, site: liver, lesion: one or several types, types not named, dosed 104 weeks, study length 104 weeks) “negative (inactive)”; (mouse, strain Cpb:Swiss random, males, in feed, site: any site (literature study), lesion: one or several types, types not named, dosed 94 weeks, study length 94 weeks) “negative (inactive)”; (mouse, strain Cpb:Swiss random, males, in feed, site: liver, lesion: hepatocellular carcinoma, dosed 94 weeks, study length 94 weeks) “negative (inactive)”; (mouse, strain Cpb:Swiss random, males, in feed, site: liver, lesion: neoplastic nodule, dosed 94 weeks, study length 94 weeks) “negative (inactive)”.

Regarding `NC1=NCN([C@@H]2O[C@H](CO)[C@@H](O)[C@H]2O)C(=O)N1`, the TD50 (rat, strain Fischer 344, males, i.p., site: any site (literature study), lesion: one or several types, types not named, dosed 52 weeks, study length 52 weeks) worked out at 20.7 mg/kg/day.
